From patent publication US20100022629A1, “Dietary Methods and Compositions for Enhancing Metabolism and Reducing Reactive Oxygen Species” (Elixirin, priority 2006, published 2010)

Tests used:
Fischer 344 male rats = assay: Morris water maze spatial memory test; format: in vivo; settings: fed 7 weeks, 5 per group, SD around 20%
Excerpt: FIG. 1 of 2 depicts measurements of spatial memory in (Fischer 344 male rats) subjected to a water maze test, after treatment with carnitine, lipoic acid, and/or polyphenol. […] The Morris maze task tests spatial memory by requiring rats to find a submerged platform in a pool of water using external visual cues (Morris, R. 1984; J. Neurosci. Methods, 11:47-60; Schenk, F. and Morris, R, Exp. Brain Res. 58:11-28, 1985). The rats in the experimental group (5 each) were fed either 0.5% (wt/vol) acetyl-L-carnitine in water, 1.0% (wt/vol) polyphenol in water; 0.2% (wt/wt) lipoic acid in AIN93M diet, or a combination of the above. Rats were acclimated for one week before experiments. Rats were fed for the above treatment for 7 weeks before tests. Trials (4 consecutive days, 4 trials per day) were conducted and the results averaged. The standard deviation is around 20%. Control rats were fed with water and AIN93M diet only.

[1] = test system: 8-hydroxy-2′-deoxyguanosine/8-hydroxyguanosine; assay: Oxidation level of DNA in hippocampus sections (anti-8-hydroxy-2′-deoxyguanosine/8-hydroxyguanosine immunocytochemistry); format: in vivo, rats; settings: rat hippocampus, fed 7 weeks, mean of 5 animals, SD about 15%
Excerpt: The rats in the experimental group (5 each) were fed either 0.5% (wt/vol) acetyl-L-carnitine in water, 1.0% (wt/vol) polyphenol in water; 0.2% (wt/wt) lipoic acid in AIN93M diet, or a combination of the above. Rats were acclimated for one week before experiments. Rats were fed for the above treatment for 7 weeks before tests. Control rats were fed with water and AIN93M diet only. For assaying DNA oxidation, rats from each treatment group (5 animals per group) was anesthetized with ether and perfused with paraformaldehyde. The brain was removed and postfixed for paraffin sections. Sections of hippocampus were incubated with anti-8-hydroxy-2′-deoxyguanosine/8-hydroxyguanosine and visualized by using standard immunocytochemical methods. Quantification of oxidation was done as described in Liu, J K, et al., (Proc. Natl. Acad. Sci. USA, 99:[…], 2002). Values are a mean of 5 animals. The standard deviation is about 15%.

[2] = test system: men and women diagnosed with a recent MI; settings: 4 grams/day for 12 months plus standard pharmacological treatment; control group 12.5%; cited from earlier work

Row | SMILES | mastery of the water maze over no treatment (Fischer 344 male rats) | DNA oxidation level compared with rats having no treatment [1] | mortality after one year of treatment [2] [%]
1 | C[N+](C)(C)CC(O)CC(=O)[O-] (centres unmarked) [carnitine] | approximately 80% | approximately 112% | 
2 | C[N+](C)(C)C[C@H](O)CC(=O)[O-] [L-carnitine] |  |  | 1.2
3 | O=C(O)CCCCC1CCSS1 (centres unmarked) [lipoic acid, 1,2-dithiolane-3-pentanoic acid] | ~79% | ~82% | 
